The results in this text go back to patent publication US6440401B1, “2-phenyl-benzimidazolesulfonic acids as UV-B filters” (Merck Patent Gesellschaft Mit Beschraenkter Haftung, priority 2000, dated 2002).

The data set in a line: UV absorption maximum. Format: physicochemical. As to the method:
108 parts of o-phenylenediamine are introduced into 500 parts of H2SO4 (>96%) and then 800 parts of oleum (65%) are added dropwise, the temperature being maintained at a maximum of 120° C. After 15 min, the mixture is cooled to 70° C. and 120 parts of benzoic acid are added. The mixture is heated for 2 h at 180° C. The mixture is slowly hydrolysed with 2 500 parts of water, the temperature being maintained below 10° C. The precipitate (crystals) is filtered off with suction, the crude product is suspended in 8 parts of water and dissolved with 32% sodium hydroxide solution at pH=7. The solution is stirred with activated carbon until colorless, and thereafter precipitation is induced using 96% H2SO4 by establishing a pH=1-2. 300 parts of 2-phenylbenzimidazole-4,6-disulfonic acid are obtained. The compound has an absorption maximum in the UV-B region at λmax=308 nm.

Take `O=S(=O)(O)c1cc(S(=O)(=O)O)c2[nH]c(-c3ccccc3)nc2c1` [2-phenylbenzimidazole-4,6-disulfonic acid]: the “absorption maximum in the UV-B region, λmax” value amounted to 308 nm.
